Measurements reported in patent US8143221B2, “Use of ADNF polypeptides for treating peripheral neurotoxicity” (Ramot at Tel-Aviv University, priority 2005, dated 2012).
Ends that are not written are not given here.

What was measured:
[1] = test system: peripheral neurotoxicity induced by the taxane taxol; assay: Plantar test (thermal hyperalgesia) in taxol-treated rats
Method: (§3) Forty Sprague-Dawley rats (eight weeks old) were divided into four groups that received the following treatments: a) 10% Cremophor EL in Saline; b) taxol for a cumulative dose of 5.6 mg/kg; c) taxol for a cumulative dose of 5.6 mg/kg+NAP 2.5 μg/kg/Day; or d) taxol for a cumulative dose of 5.6 mg/kg+NAP 25 μg/kg/Day. The taxol was reconstituted in a vehicle of 10% Cremophor EL in Saline.
(§4) Taxol treatments were administered four times intraperitoneally (i.p.) on nonconsecutive days in a volume of 250 μl each time. NAP was administered daily on 8 consecutive days from the first day of taxol injection (with a 2 day brake on the weekend).
Rats were tested in the rota-rod and plantar test. […] The plantar test evaluates thermal hyperalgesia. For the plantar test, each rat was placed in a clear plastic chamber with a plastic floor and allowed a short period to acclimatize to the new environment (approximately 2-5 min). The animals were then challenged with a radiant Infrared (IR) heat source directed at the plantar surface of the hind paw from below (7371 Plantar Test, Ugo Basile). The withdrawal latency of both the ipsilateral and contralateral hind paw was evaluated. The infrared intensity was set at IR55 and the maximum length of exposure to the IR source was eighteen seconds. Statistical differences were tested by ANOVA and by t-test. […]

[2] = test system: peripheral neurotoxicity induced by the taxane taxol; assay: Rota-rod test in taxol-treated rats; conditions: Experiment 2: rats, taxol cumulative 9 mg/kg i.p.; five days after the first taxol injection
Method: In the Rota-rod test a rodent is placed on a rotating rod. […] The time spent on the rota-rod without falling was recorded. Impaired animals fall earlier from the rota-rod.
as §3, §4
Rats were tested in the rota-rod and plantar test. The rota-rod test is described above and assesses muscle strength. […] Statistical differences were tested by ANOVA and by t-test.
Fifteen Sprague-Dawley Rats (seven weeks old) were randomly divided into three groups that received the following treatments: a) 10% Cremophor EL in Saline; b) taxol for a cumulative dose of 9 mg/kg; or c) taxol for a cumulative dose of 9 mg/kg+2.5 μg/kg/Day NAP. The taxol was reconstituted in a vehicle of 10% Cremophor EL in Saline. […]

tubulin = conditions: cited from earlier work
[3] = test system: neurons of the central nervous system; conditions: in-vitro assays and in vivo disease models; cited from earlier work
[4] = test system: peripheral neurotoxicity induced by the vinca alkaloid vincristine; assay: Rota-rod test in vincristine-treated rats; assay type: in vivo; conditions: vincristine 0.175 mg/kg i.p. alone vs saline control, P<0.01
Method: (§1) Rats (200-300 g), divided into 4 groups of 10, were injected with vincristine sulfate dissolved in saline. Stock concentration was 2 mg/ml, pH 4.5-5.2. Aliquots of the drug were diluted daily in saline to concentrations of 0.175 mg/ml and were administered i.p. at a dose of 0.175 mg/kg. NAP was prepared at 0.1 mg/1.3 ml in saline (0.9% NaCl) and about 0.1 ml was injected subcutaneously to a ˜300 g rat to achieve a dose of 25 microgram/kg (exact calculations were made based on the daily body weights). For 2.5 microgram/kg, the injection solution was diluted by 10 and again 0.1 ml was injected per rat. Treatments took place daily (5 days a week) for ˜3 weeks (20 days) with the dosage calculated on daily body weight. NAP was administered at the same time as the vincristine, in the dosage and the amount where indicated the following schedule.
(§2) Four groups were evaluated: 1) Control, saline (n=10), 2) Vincristine (i.p.) 0.175 mg/kg (n=10), 3) Vincristine (i.p.) 0.175 mg/kg+NAP (s.c.) 2.5 microgram/kg (n=10), and 4) Vincristine (i.p.) 0.175 mg/kg+NAP (s.c.) 25 microgram/kg (n=10).
After a week cessation of treatment, a final boost of vincristine was given i.p. daily for three days and NAP at 25 microgram/kg was given intranasally to group number 4 only. […] For behavioral testing baseline toxin effects were evaluated 2-23 days following the first injection, using the testing procedures below: […]

[5] = test system: peripheral neurotoxicity induced by the vinca alkaloid vincristine; assay: Motor evaluation: ability to exit a circle 30 cm in diameter within 20 seconds, vincristine-treated rats; assay type: in vivo; conditions: vincristine 0.175 mg/kg i.p. alone vs control
Method: as §1, §2
Motor examination was performed on days 6, 9, 13 and 24 after the initiation of the vincristine injections. Rats were examined after vincristine injection, with the use of a motor disability scale. […]
Animals were assessed based on their failure to walk out of a circle 30 cm in diameter within 20 seconds.

[6] = test system: peripheral neurotoxicity induced by the vinca alkaloid vincristine; assay: Olfactory discrimination test in vincristine-treated rats; assay type: in vivo; conditions: vincristine alone (group 2)
Method: Treatments took place daily (5 days a week) for ˜3 weeks (20 days) with the dosage calculated on daily body weight. NAP was administered subcutaneously at the same time as the vincristine was administered intraperitoneally, in the dosage and the amount indicated in the schedule above. After a week cessation of treatment a final boost of vincristine was given i.p. daily for three days and NAP at 25 microgram/kg was given intranasally to group number 4 only. The intranasal formulation followed the previous experiment (Alcalay et al., infra). An olfactory discrimination test was performed on each of the three days of NAP treatment during the final boost period. (Macknin et al., Brain Res. 1000, 174-78 (2004)) The odors tested were 1) Deionized water (ddw) and 2) Scented extracts, i.e., vanilla/almond.
Overall the experiment included 3 odors (water and two scented extracts) each encompassing 3 trials of 2 minutes. New dipped tip was introduced at the beginning of each trial for the different scents.
Thirty minutes before the testing the subjects were housed in separate cages and a cotton tip dipped in water was placed hanging into the cage. During these 30 minutes the animal was acclimatized to the tip and the cage. Thereafter, the cotton tip was dipped in the desired scent and placed hanging from the top of the cage. […]

[7] = test system: peripheral neurotoxicity under chemotherapy including L-OHP, FA/5-FU; assay: Randomized trial with or without NAP under chemotherapy with oxaliplatin (L-OHP), FA/5-FU; assay type: in vivo; conditions: patients with ACRC, NAP 15 mg/45-70 kg i.v. before L-OHP, vs control group
Method: Aim of the study: Chemotherapy with L-OHP, FA, 5-FU has a high activity in advanced colorectal cancer (ACRC). The main dose-limiting toxicity of chemotherapy with L-OHP is a peripheral sensory neuropathy. In this study the patients (pts) will receive a chemotherapy with L-OHP, FA and 5-FU with or without NAP. The question is whether a reduction of side effects of neurotoxicity is seen after application of NAP.
We include 27 patients with ACRC. In arm A chemotherapy is applied with L-OHP 85 mg/m2 d1, FA 500 mg/m2 d1+d2 and 5-FU 4000 mg/m2 over 48 h continuous infusion as biweekly schedule. In arm B, 15 mg/45-70 kg NAP is given over 10 min i.v. before application of the same schedule of chemotherapy. Investigation of toxicity, neurological examination and a blood count is performed before every cycle. For a daily documentation of the side effects every patient receives a questionnaire.

CC(=O)O[C@H]1C(=O)[C@@]2(C)[C@H]([C@H](OC(=O)c3ccccc3)[C@]3(O)C[C@H](OC(=O)[C@H](O)[C@@H](NC(=O)c4ccccc4)c4ccccc4)C(C)=C1C3(C)C)[C@]1(OC(C)=O)CO[C@@H]1C[C@@H]2O [taxol]
Plantar test: thermal hyperalgesia, toxin alone ([1]; Experiment 1: rats, taxol cumulative 5.6 mg/kg i.p., after the last taxol injection on day three): exhibited thermal hyperalgesia
Plantar test: thermal hyperalgesia, toxin alone ([1]; Experiment 2: rats, taxol cumulative 9 mg/kg i.p., eight days after the last Taxol injection): exhibited a significant thermal hyperalgesia
Rota-rod test: neuromuscular function, toxin alone [2]: a significant effect on neuromuscular function

SALLRSIPA
Interaction with tubulin (tubulin): interact with tubulin
Neuron survival in response to various insults [3]: keep neurons of the central nervous system alive

CC[C@]1(O)C[C@H]2CN(CCc3c([nH]c4ccccc34)[C@@](C(=O)OC)(c3cc4c(cc3OC)N(C=O)[C@H]3[C@@](O)(C(=O)OC)[C@H](OC(C)=O)[C@]5(CC)C=CCN6CC[C@]43[C@@H]65)C2)C1 [vincristine]
Rota-rod performance, toxin alone vs control [4]: significant difference between the vincristine treated animals and the control animals indicating impairment
Ability to exit a circle 30 cm in diameter within 20 seconds, toxin alone vs control ([5]; P<0.001): significantly reduced
Ability to exit a circle 30 cm in diameter within 20 seconds, toxin alone vs control ([5]; P<0.001, listed as Vincristine): significantly worse as compared to control animals
Time spent with new odors: olfaction capacity, toxin alone [6]: did not show any initial interest in the new smell

CC[C@H](C)[C@H](NC(=O)[C@H](CO)NC(=O)[C@@H](NC(=O)[C@@H]1CCCN1C(=O)[C@H](C)NC(=O)[C@@H](N)CC(N)=O)C(C)C)C(=O)N1CCC[C@H]1C(=O)N[C@@H](CCC(N)=O)C(=O)O [NAP, Asn-Ala-Pro-Val-Ser-Ile-Pro-Gln]
Frequency of grade II/III leucopenia [7]: occurs at a lower frequency than in the control group

B1: ADNP: full length ADNF III, activity-dependent neuroprotective protein (protein, UniProt Q9H2P0 1-1102, looked up)
chain: MFQLPVNNLGSLRKARKTVKKILSDIGLEYCKEHIEDFKQFEPNDFYLKNTTWEDVGLWDPSLTKNQDYRTKPFCCSACPFSSKFFSAYKSHFRNVHSEDFENRILLNCPYCTFNADKKTLETHIKIFHAPNASAPSSSLSTFKDKNKNDGLKPKQADSVEQAVYYCKKCTYRDPLYEIVRKHIYREHFQHVAAPYIAKAGEKSLNGAVPLGSNAREESSIHCKRCLFMPKSYEALVQHVIEDHERIGYQVTAMIGHTNVVVPRSKPLMLIAPKPQDKKSMGLPPRIGSLASGNVRSLPSQQMVNRLSIPKPNLNSTGVNMMSSVHLQQNNYGVKSVGQGYSVGQSMRLGLGGNAPVSIPQQSQSVKQLLPSGNGRSYGLGSEQRSQAPARYSLQSANASSLSSGQLKSPSLSQSQASRVLGQSSSKPAAAATGPPPGNTSSTQKWKICTICNELFPENVYSVHFEKEHKAEKVPAVANYIMKIHNFTSKCLYCNRYLPTDTLLNHMLIHGLSCPYCRSTFNDVEKMAAHMRMVHIDEEMGPKTDSTLSFDLTLQQGSHTNIHLLVTTYNLRDAPAESVAYHAQNNPPVPPKPQPKVQEKADIPVKSSPQAAVPYKKDVGKTLCPLCFSILKGPISDALAHHLRERHQVIQTVHPVEKKLTYKCIHCLGVYTSNMTASTITLHLVHCRGVGKTQNGQDKTNAPSRLNQSPSLAPVKRTYEQMEFPLLKKRKLDDDSDSPSFFEEKPEEPVVLALDPKGHEDDSYEARKSFLTKYFNKQPYPTRREIEKLAASLWLWKSDIASHFSNKRKKCVRDCEKYKPGVLLGFNMKELNKVKHEMDFDAEWLFENHDEKDSRVNASKTADKKLNLGKEDDSSSDSFENLEEESNESGSPFDPVFEVEPKISNDNPEEHVLKVIPEDASESEEKLDQKEDGSKYETIHLTEEPTKLMHNASDSEVDQDDVVEWKDGASPSESGPGSQQVSDFEDNTCEMKPGTWSDESSQSEDARSSKPAAKKKATMQGDREQLKWKNSSYGKVEGFWSKDQSQWKNASENDERLSNPQIEWQNSTIDSEDGEQFDNMTDGVAEPMHGSLAGVKLSSQQA
modifications: full-length
Interaction with tubulin (tubulin): interact with tubulin
